Measured values published in patent US10335409B2 (priority 2012, dated 2019).
Like-named read-outs stand apart in the source and are kept apart here.

Assays:
[1] = test system: genotype 1a NS3/4a protease inhibitor resistant variant R155K transient HCV replicon in Huh-7-derived cells; experiment: Transient-transfected HCV replicon EC50, genotype 1a R155K; assay type: cell-based, hepatitis C virus; settings: 72 h
[2] = test system: genotype 1a (H77) wild type transient HCV replicon in Huh-7-derived cells; experiment: Transient-transfected HCV replicon EC50, genotype 1a wild type; assay type: cell-based, hepatitis C virus; settings: 72 h, transient-transfected replicon genotype 1a wild type, read-out: EC50 1A WT
[3] = test system: genotype 1b (Con1) stable HCV replicon in Huh-7-derived cells; experiment: Stable subgenomic HCV replicon EC50, genotype 1b (Renilla luciferase); assay type: cell-based, hepatitis C virus; settings: stable replicon genotype 1b, 72 h, read-out: EC50 1B RLUC
How it was run: (§1)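 Compounds, three-fold diluted, were applied to Huh-7-derived cells harbouring luciferase replicons (genotype 1a H77, 1b Con1, 2a JFH-1, 4a ED43, with strain-specific adaptive mutations). Seventy-two hours later, intracellular replication was gauged by Renilla luciferase activity and EC50 derived by regression.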

[4] = test system: genotype 1a (H77) stable HCV replicon in Huh-7-derived cells; experiment: Stable subgenomic HCV replicon EC50, genotype 1a (Renilla luciferase); assay type: cell-based, hepatitis C virus; settings: stable replicon genotype 1a, 72 h, read-out: EC50 1A RLUC
How it was run: as §1

[5] = target: HCV NS3 protease domain genotype 3a (Hepatitis C virus genotype 3a, UniProt Q81258); experiment: Ki determination, NS3 protease genotype 3a (fluorogenic depsipeptide substrate); assay type: biochemical; settings: 200 pM enzyme, NS4A peptide
Chain of HCV NS3 protease domain genotype 3a (Q81258 whole entry, looked up, the tested form may be a part): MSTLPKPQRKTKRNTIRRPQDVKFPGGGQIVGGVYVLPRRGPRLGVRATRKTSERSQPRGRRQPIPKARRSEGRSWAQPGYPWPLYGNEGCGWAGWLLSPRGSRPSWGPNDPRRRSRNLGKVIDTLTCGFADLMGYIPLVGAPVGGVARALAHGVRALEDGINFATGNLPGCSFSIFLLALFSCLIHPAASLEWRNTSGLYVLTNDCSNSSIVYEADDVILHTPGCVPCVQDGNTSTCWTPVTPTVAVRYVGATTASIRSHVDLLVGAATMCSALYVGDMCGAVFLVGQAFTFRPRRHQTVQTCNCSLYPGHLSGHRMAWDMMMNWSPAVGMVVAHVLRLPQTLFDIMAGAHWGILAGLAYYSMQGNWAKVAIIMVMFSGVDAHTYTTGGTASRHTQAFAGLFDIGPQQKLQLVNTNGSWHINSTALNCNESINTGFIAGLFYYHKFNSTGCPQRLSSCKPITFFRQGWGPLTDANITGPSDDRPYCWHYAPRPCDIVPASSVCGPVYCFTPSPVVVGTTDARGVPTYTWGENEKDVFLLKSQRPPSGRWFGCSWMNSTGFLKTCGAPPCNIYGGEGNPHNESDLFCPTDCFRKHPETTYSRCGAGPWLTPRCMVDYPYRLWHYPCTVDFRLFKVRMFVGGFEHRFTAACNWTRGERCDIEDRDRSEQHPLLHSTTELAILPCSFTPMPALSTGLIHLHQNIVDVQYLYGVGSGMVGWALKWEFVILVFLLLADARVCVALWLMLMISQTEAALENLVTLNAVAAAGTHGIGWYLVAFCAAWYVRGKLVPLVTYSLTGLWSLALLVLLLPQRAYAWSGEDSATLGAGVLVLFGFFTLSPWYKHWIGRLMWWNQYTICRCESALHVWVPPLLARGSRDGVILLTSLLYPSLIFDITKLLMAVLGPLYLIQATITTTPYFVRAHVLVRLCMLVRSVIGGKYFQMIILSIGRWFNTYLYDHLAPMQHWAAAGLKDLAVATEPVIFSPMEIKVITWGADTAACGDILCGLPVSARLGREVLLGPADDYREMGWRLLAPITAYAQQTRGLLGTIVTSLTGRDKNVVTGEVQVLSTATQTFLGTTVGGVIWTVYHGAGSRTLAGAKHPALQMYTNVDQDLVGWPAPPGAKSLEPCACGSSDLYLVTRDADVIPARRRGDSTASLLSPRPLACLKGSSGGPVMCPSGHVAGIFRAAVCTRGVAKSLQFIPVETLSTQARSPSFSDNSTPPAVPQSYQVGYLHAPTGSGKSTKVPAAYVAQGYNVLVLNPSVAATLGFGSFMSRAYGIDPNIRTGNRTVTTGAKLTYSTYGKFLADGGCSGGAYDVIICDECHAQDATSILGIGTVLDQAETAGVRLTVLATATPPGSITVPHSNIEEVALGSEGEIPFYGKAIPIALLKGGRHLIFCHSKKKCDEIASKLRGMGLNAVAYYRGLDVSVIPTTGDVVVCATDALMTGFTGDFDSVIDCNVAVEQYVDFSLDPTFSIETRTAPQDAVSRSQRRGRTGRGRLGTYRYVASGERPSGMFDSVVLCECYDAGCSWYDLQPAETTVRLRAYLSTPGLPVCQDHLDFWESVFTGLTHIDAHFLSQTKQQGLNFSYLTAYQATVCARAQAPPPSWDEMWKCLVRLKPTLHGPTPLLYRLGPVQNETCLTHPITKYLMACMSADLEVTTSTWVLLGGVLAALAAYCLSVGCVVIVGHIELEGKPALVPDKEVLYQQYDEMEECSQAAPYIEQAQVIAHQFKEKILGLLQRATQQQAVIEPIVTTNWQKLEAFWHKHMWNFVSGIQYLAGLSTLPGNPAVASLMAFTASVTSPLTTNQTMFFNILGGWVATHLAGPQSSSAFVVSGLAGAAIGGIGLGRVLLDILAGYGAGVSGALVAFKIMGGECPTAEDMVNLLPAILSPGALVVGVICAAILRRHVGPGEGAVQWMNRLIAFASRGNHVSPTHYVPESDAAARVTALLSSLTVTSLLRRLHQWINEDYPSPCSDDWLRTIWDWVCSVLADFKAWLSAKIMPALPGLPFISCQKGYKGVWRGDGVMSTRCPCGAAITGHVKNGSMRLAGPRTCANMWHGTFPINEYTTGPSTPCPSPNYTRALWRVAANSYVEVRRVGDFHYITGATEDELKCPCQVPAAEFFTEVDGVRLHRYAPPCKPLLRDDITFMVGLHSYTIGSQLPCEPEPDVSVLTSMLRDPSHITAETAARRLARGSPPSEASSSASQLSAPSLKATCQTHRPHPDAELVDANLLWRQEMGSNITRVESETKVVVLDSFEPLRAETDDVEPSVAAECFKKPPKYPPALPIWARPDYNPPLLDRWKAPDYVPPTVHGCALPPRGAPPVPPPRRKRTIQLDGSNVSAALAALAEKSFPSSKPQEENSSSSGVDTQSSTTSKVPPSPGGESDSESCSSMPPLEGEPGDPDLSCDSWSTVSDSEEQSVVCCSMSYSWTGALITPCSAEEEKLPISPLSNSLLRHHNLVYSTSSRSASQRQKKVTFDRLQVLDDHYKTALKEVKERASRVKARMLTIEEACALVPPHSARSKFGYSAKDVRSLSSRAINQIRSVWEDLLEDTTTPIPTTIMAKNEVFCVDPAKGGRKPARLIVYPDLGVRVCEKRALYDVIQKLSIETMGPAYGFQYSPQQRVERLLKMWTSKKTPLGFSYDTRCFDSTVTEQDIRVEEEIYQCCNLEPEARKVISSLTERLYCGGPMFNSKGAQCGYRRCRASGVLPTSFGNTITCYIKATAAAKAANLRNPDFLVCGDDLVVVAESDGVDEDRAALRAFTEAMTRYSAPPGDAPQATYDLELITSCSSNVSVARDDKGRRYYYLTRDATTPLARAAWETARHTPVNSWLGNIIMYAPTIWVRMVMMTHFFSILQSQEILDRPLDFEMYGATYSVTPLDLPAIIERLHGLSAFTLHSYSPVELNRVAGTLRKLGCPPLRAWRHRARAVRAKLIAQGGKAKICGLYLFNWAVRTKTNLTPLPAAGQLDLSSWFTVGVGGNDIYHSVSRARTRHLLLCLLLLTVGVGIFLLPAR
Source text: Purified NS3 protease domain (amino acids 1-181) of the genotype 1b and 3a virus were generated as above. The internally quenched fluorogenic depsipeptide substrate Ac-DED(Edans)-EEAbuΨ[COO]ASK(Dabcyl)-NH2 and a synthetic peptide containing the hydrophobic core residues of the NS4A protein cofactor ([…]; NS4A peptide) were obtained from Anaspec, Inc. (San Jose, Calif.). Other chemicals and biochemicals were of reagent grade or better and were purchased from standard suppliers.
Reactions were run at room temperature in buffer consisting of 50 mM HEPES, 40% glycerol, 0.05% Triton X-100, 10 mM DTT, and 10% DMSO. The final assay solutions contained 50 pM NS3 genotype 1 b protease or 200 pM genotype 3a protease, 20 μM NS4A peptide, and 4 μM substrate (genotype 1b) or 2 μM substrate (genotype 3a). Inhibitor concentrations varied from 100 nM to 5 pM in 3-fold dilutions, and no-inhibitor controls were included.
Compound dilutions were made in DMSO at 20× final concentration. Reaction mixtures were prepared in 96-well assay plates. A solution of enzyme and NS4A peptide in assay buffer (25 μL volume with both reagents at 4× final concentration) was mixed with 45 μL assay buffer and 5 μL of either inhibitor or DMSO, and pre-incubated at room temperature for 1 hour. The reaction was started by addition of 25 μL substrate solution at 4× final concentration. Plates were mixed vigorously for 5-10 seconds and reactions were allowed to proceed for 90 minutes, fluorescence was measured every 30 s between 90 and 120 minutes reaction time using a Tecan InfiniTe M1000 or PerkinElmer Envision multimode plate reader with an excitation wavelength of 340 nm and an emission wavelength of 490 nm.
Rates were calculated from the progress curves at steady state, in the time frame of 90-120 minutes after addition of substrate. To determine the Ki, rates were plotted as a function of inhibitor concentration, and the data were fit with equation 1 (Morrison, J. F., Biochimica et Biophysica Acta 1969, 185, 269-286) to calculate Ki^app using GraphPad Prism 5. Active fraction of enzyme was determined by active site titration with known potent inhibitors. Ki was calculated from Ki^app/(1+[[S]/Km]).

[6] = test system: genotype 1b (Con1) wild type transient HCV replicon in Huh-7-derived cells; experiment: Transient-transfected HCV replicon EC50, genotype 1b wild type; assay type: cell-based, hepatitis C virus; settings: 72 h, transient-transfected replicon genotype 1b wild type, read-out: EC50 1B WT
[7] = test system: genotype 2a (JFH-1) stable HCV replicon in Huh-7-derived cells; experiment: Stable subgenomic HCV replicon EC50, genotype 2a (Renilla luciferase); assay type: cell-based, hepatitis C virus; settings: stable replicon genotype 2a, 72 h, read-out: EC50 2A RLUC
How it was run: as §1

[8] = test system: genotype 1b NS3/4a protease inhibitor resistant variant D168A transient HCV replicon in Huh-7-derived cells; experiment: Transient-transfected HCV replicon EC50, genotype 1b D168A; assay type: cell-based, hepatitis C virus; settings: 72 h
[9] = test system: genotype 4a (ED43) stable HCV replicon in Huh-7-derived cells; experiment: Stable subgenomic HCV replicon EC50, genotype 4a (Renilla luciferase); assay type: cell-based, hepatitis C virus; settings: 72 h, read-out: EC50 4A RLUC
How it was run: as §1

[10] = test system: genotype 3a (S52) stable HCV replicon in Huh-7-derived cells; experiment: Stable subgenomic HCV replicon EC50, genotype 3a (Renilla luciferase); assay type: cell-based, hepatitis C virus; settings: 72 h, read-out: EC50 3A RLUC
[11] = Hepatitis C virus, read-out: EC50 1A R155K, transient-transfected replicon genotype 1a R155K resistant variant, 72 h
[12] = Hepatitis C virus, read-out: EC50 1B D168A, transient-transfected replicon genotype 1b D168A resistant variant, 72 h
[13] = transient-transfected replicon genotype 1a R155K resistant variant, read-out: EC50 1A R155K
[14] = transient-transfected replicon genotype 1b D168A resistant variant, read-out: EC50 1B D168A
[15] = stable replicon genotype 4a, Renilla luciferase
[16] = stable replicon genotype 3a, Renilla luciferase

Compound `CC[C@@]12C[C@H]1CCCCCc1nc3ccc(OC)cc3nc1O[C@H]1CN(C(=O)[C@H](C(C)(C)C)NC(=O)O2)[C@H](C(=O)N[C@]2(C(=O)NS(=O)(=O)C3(C)CC3)C[C@H]2C(F)F)[C@@H]1C` [Example 43, (1aR,5S,8S,9S,10R,22aR)-5-tert-butyl-N-[(1R,2R)-2-(difluoromethyl)-1-{[(1-methylcyclopropyl)sulfonyl]carbamoyl}cyclopropyl]-1a-ethyl-14-methoxy-9-methyl-3,6-dioxo-1,1a,3,4,5,6,9,10,18,19,20,21,22,22a-tetradecahydro-8H-7,10-methanocyclopropa[18,19][1,10,3,6]dioxadiazacyclononadecino[11,12-b]quinoxaline-8-carboxamide] has an EC50 [1, 11] of 8.7 nM, an EC50 ([2]; Hepatitis C virus) of 3.8 nM and an EC50 ([3]; Hepatitis C virus) of 3.8 nM. It also gave an EC50 ([4]; Hepatitis C virus) of 4.9 nM, a Ki [5] of 0.16 nM and an EC50 ([6]; Hepatitis C virus) of 2.4 nM. It also gave an EC50 ([7]; Hepatitis C virus) of 5.2 nM, an EC50 [8, 12] of 41 nM and an EC50 ([9]; Hepatitis C virus) of 3.6 nM. The EC50 ([10]; Hepatitis C virus) was 92 nM.
`CC[C@@H]1[C@@H]2CN(C(=O)[C@H](C(C)(C)C)NC(=O)O[C@]3(C(F)(F)F)CCC[C@H]3CCCCCc3nc4ccc(OC)cc4nc3O2)[C@@H]1C(=O)N[C@]1(C(=O)NS(=O)(=O)C2CC2)C[C@H]1C(F)F` [Example 11, (7S,10S,11 S,12R)-7-tert-butyl-N-[(1R,2R)-1-[(cyclopropylsulfonyl)carbamoyl]-2-(difluoromethyl)cyclopropyl]-1-ethyl-16-methoxy-5,8-dioxo-3aR-(trifluoromethyl)-1,2,3,3a,5,6,7,8,11,12,20,21,22,23,24,24a-hexadecahydro-1 OH-9,12-methanocyclopenta[18,19][1,10,3,6]dioxadiazacyclononadecino[11,12-b]quinoxaline-10-carboxamide] gave an EC50 [1, 13] of 159 nM, an EC50 [2] of 20 nM and an EC50 [3] of 17 nM. It also gave an EC50 [4] of 28 nM, a Ki [5] of 0.88 nM and an EC50 [6] of 9.4 nM. For the same compound, the EC50 [7] was 34 nM, the EC50 [8, 14] was 605 nM and the EC50 [9, 15] was 19 nM. It also gave an EC50 [10, 16] of 1160 nM.
In the case of `COc1ccc2nc3c(nc2c1)O[C@H]1CN(C(=O)[C@H](C(C)(C)C)NC(=O)O[C@@H]2CCC[C@H]2CCCCC3)[C@H](C(=O)N[C@]2(C(=O)NS(=O)(=O)C3(C)CC3)C[C@H]2C(F)F)[C@@H]1C` [Example 27, (3aR,7S10S,1S,12R,24aR)-7-tert-butyl-N-[(1R,2R)-2-(difluoromethyl)-1-{[(1-methylcyclopropyl)sulfonyl]carbamoyl}cyclopropyl]-16-methoxy-11-methyl-5,8-dioxo-1,2,3,3a,5,6,7,8,11,12,20,21,22,23,24,24a-hexadecahydro-10H-9,12-methanocyclopenta[18,19][1,10,3,6]dioxadiazacyclononadecino[11,12-b]quinoxaline-10-carboxamide], the EC50 [1, 11] is reported as 20 nM, the EC50 ([2]; Hepatitis C virus) is reported as 6 nM and the EC50 ([3]; Hepatitis C virus) is reported as 5.2 nM. It also gave an EC50 ([4]; Hepatitis C virus) of 6.6 nM, a Ki [5] of 0.08 nM and an EC50 ([6]; Hepatitis C virus) of 4.3 nM. It also gave an EC50 ([7]; Hepatitis C virus) of 6.7 nM, an EC50 [8, 12] of 70 nM and an EC50 ([9]; Hepatitis C virus) of 6.1 nM. For the same compound, the EC50 ([10]; Hepatitis C virus) was 266 nM.
Work on `COc1ccc2nc3c(nc2c1)O[C@H]1CN(C(=O)[C@H](C(C)(C)C)NC(=O)O[C@@H]2C[C@H]2CCCCC3)[C@H](C(=O)N[C@]2(C(=O)NS(=O)(=O)C3(C)CC3)C[C@H]2C(F)F)[C@@H]1Cc1ccccc1` [Example 32] yielded an EC50 ([1]; Hepatitis C virus, GETYPE1A, read-out: EC50 1A R155K, transient-transfected replicon genotype 1a R155K resistant variant, 72 h) of 547 nM, an EC50 ([2]; Hepatitis C virus, GETYPE1A) of 44 nM and an EC50 ([3]; Hepatitis C virus) of 30 nM. For the same compound, the EC50 ([4]; Hepatitis C virus) was 59 nM, the Ki [5] was 0.87 nM and the EC50 ([6]; Hepatitis C virus, GETYPE1B) was 14 nM. For the same compound, the EC50 ([7]; Hepatitis C virus) was 35 nM, the EC50 ([8]; Hepatitis C virus, GETYPE1B, read-out: EC50 1B D168A, transient-transfected replicon genotype 1b D168A resistant variant, 72 h) was 653 nM and the EC50 ([9]; Hepatitis C virus) was 30 nM. It also gave an EC50 ([10]; Hepatitis C virus) of 2310 nM.
`CC[C@]12C[C@@H]1CCCCCc1nc3ccc(OC)cc3nc1O[C@H]1CN(C(=O)[C@H](C(C)(C)C)NC(=O)O2)[C@H](C(=O)N[C@]2(C(=O)NS(=O)(=O)C3(C)CC3)C[C@H]2C(F)F)[C@@H]1C` [Example 42, (1aS,5S,8S,9S,10R,22aS)-5-tert-butyl-N-[(1R,2R)-2-(difluoromethyl)-1-{[(1-methylcyclopropyl)sulfonyl]carbamoyl}cyclopropyl]-1a-ethyl-14-methoxy-9-methyl-3,6-dioxo-1,1a,3,4,5,6,9,10,18,19,20,21,22,22a-tetradecahydro-8H-7,10-methanocyclopropa[18,19][1,10,3,6]dioxadiazacyclononadecino[11,12-b]quinoxaline-8-carboxamide] gave an EC50 [1, 11] of 35 nM, an EC50 ([2]; Hepatitis C virus) of 17 nM and an EC50 ([3]; Hepatitis C virus) of 16 nM. It also gave an EC50 ([4]; Hepatitis C virus) of 20 nM, a Ki [5] of 0.75 nM and an EC50 ([6]; Hepatitis C virus) of 10 nM. For the same compound, the EC50 ([7]; Hepatitis C virus) was 17 nM, the EC50 [8, 12] was 109 nM and the EC50 ([9]; Hepatitis C virus) was 14 nM. For the same compound, the EC50 ([10]; Hepatitis C virus) was 343 nM.
`CC[C@@H]1[C@@H]2CN(C(=O)[C@H](C(C)(C)C)NC(=O)O[C@@]3(C(F)(F)F)CCCC3CCCCCc3nc4ccc(OC)cc4nc3O2)[C@@H]1C(=O)N[C@]1(C(=O)NS(=O)(=O)C2(C)CC2)C[C@H]1C(F)F` (stereo partly drawn) [Example 10, (7S,10S,11S,12R)-7-tert-butyl-N-[(1R,2R)-2-(difluoromethyl)-1-{[(1-methylcyclopropyl)sulfonyl]carbamoyl}cyclopropyl]-11-ethyl-16-methoxy-5,8-dioxo-3aS-(trifluoromethyl)-1,2,3,3a,5,6,7,8,11,12,20,21,22,23,24,24a-hexadecahydro-10H-9,12-methanocyclopenta[18,19][1,10,3,6]dioxadiazacyclononadecino[11,12-b]quinoxaline-10-carboxamide] showed an EC50 [1, 13] of 131 nM, an EC50 [2] of 37 nM and an EC50 [3] of 22 nM. The EC50 [4] was 30 nM, the Ki [5] was 0.52 nM and the EC50 [6] was 10 nM. For the same compound, the EC50 [7] was 49 nM, the EC50 [8, 14] was 493 nM and the EC50 [9, 15] was 26 nM. The EC50 [10, 16] was 978 nM.
